In patent US10633339B2, “Tricyclic sulfone compound as a ROR gamma modulator” (BRISTOL-MYERS SQUIBB COMPANY, priority 2018, dated 2020):

Assays:
[1] = Glutathione conjugate formation in rat liver cytosol incubations; assay type: in vitro ADME
Procedure: (§1) Assay for Glutathione Conjugate formation in Rat or Human Cytosol Incubations Compound A and Compound 1 were incubated at a concentration of 10 μM with rat or human liver cytosol (3-5 mg/mL) (male Sprague-Dawley rat liver cytosol, lot BIM, n=100 purchased from Bioreclamation IVT, or mixed gender pool, lot 452115, n=150 purchased from Corning) in 1 mL of potassium phosphate buffer (50 mM, pH 8.5). The reactions (n=2, total volume=1000 μL) were initiated by the addition of glutathione (GSH) (5 mM) and incubated at 37° C. in a thermomixer. At 0 and 60 min, aliquots (100 μL) of the reaction mixtures were collected, and reactions were terminated by adding two volumes of acetonitrile. Proteins were then removed using a Millipore Sigma (Massachusetts, BA) Multiscreen Solvinert filter plate, by centrifugation (Eppendorf 5810 R, Hamburg, Germany) at 2000 rpm for 5 min. The filtrate was collected in a 96-well plate and was analyzed by high resolution Velos LTQ-Orbitrap (LC-UV/MS) system. UV absorbance was collected from 220-600 nm. […] The degrees of formation of GSH conjugates from the two compounds is shown below. Entries represent UV peak areas calculated relative to the parent compound at 260-280 nm. Data in parentheses represent the averages of the two experiments.

[2] = Glutathione conjugate formation in human liver cytosol incubations; assay type: in vitro ADME; details: 10 μM compound, 5 mM GSH, 37° C., 60 min; UV peak area relative to parent at 260-280 nm; n=2
Procedure: as §1

GSH conjugate, Rat Cytosol UV Area (%), individual experiments ([1]; 10 μM compound, 5 mM GSH, 37° C., 60 min, UV peak area relative to parent at 260-280 nm, n=2): not detected
GSH adduct formation (statement in words) ([1]; based on in vitro experiments (rat or human cytosol, not given)): did not form a GSH adduct
GSH conjugate, Human Cytosol UV Area (%), individual experiments [2]: not detected
Compound: C[C@H]1C[C@H](C(=O)O)CC[C@H]1C(=O)N1CC[C@@]2(S(=O)(=O)c3ccccc3)c3cc(F)c(C(F)(C(F)(F)F)C(F)(F)F)cc3CC[C@@H]12 [Compound 1, (1R,3S,4R)-4-((3aR,9bR)-8-fluoro-7-(perfluoropropan-2-yl)-9b-(phenylsulfonyl)-2,3,3a,4,5,9b-hexahydro-1H-benzo[e]indole-3-carbonyl)-3-methylcyclohexane-1-carboxylic acid]
